Data: PMC10257182, “Discovery of senolytics using machine learning” (Nature Communications, 2023)
Like-named read-outs stand apart in the source and are kept apart here.

Assays:
Assay type in all cases: cell-based, human
[1] = test system: senescent IMR90 ER:RAS cells (4-OHT-induced); test: Nuclei count (Hoechst, high content imaging) senolytic assay, oncogene-induced senescence (OIS) model, senescent cells; details: for viability at 10 µM / viability at 4.677 µM / viability at 2.188 µM / viability at 1 µM / viability at 0.4677 µM / viability at 0.2188 µM / viability at 0.1 µM / viability at 0.04677 µM / viability at 0.02188 µM / viability at 0.01 µM: Homo sapiens; for viability at 10 µM: log (dose) [M] -5, 72 h; for viability at 4.677 µM: log (dose) [M] -5.33, 72 h; for viability at 2.188 µM: log (dose) [M] -5.66, 72 h; for viability at 1 µM: log (dose) [M] -6, 72 h; for viability at 0.1 µM: log (dose) [M] -7, 72 h
In short: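 Readout is automated image-based counting of Hoechst-stained nuclei per well, with loss of cells relative to untreated wells taken as cell death. Senescent (4-OHT, 100 nM) and control IMR90 ER:RAS cells were exposed to compounds for 72 h at 10 nM to 10 μM final.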

[2] = test system: senescent A549 cells (etoposide-induced); test: Nuclei count senolytic assay, therapy-induced senescence (TIS) model, senescent cells; details: Homo sapiens, A549, Senescent cells, mean, read-out: Mean % Cell Survival; for viability at 10 µM: log (dose) [M] -5; for viability at 4.68 µM: log (dose) [M] -5.33; for viability at 2.19 µM: log (dose) [M] -5.66; for viability at 1 µM: log (dose) [M] -6; for viability at 0.468 µM: log (dose) [M] -6.33; for viability at 0.219 µM: log (dose) [M] -6.66; for viability at 0.1 µM: log (dose) [M] -7; for viability at 0.0468 µM: log (dose) [M] -7.33; for viability at 0.0219 µM: log (dose) [M] -7.66; for viability at 0.01 µM: log (dose) [M] -8
In short: (§1)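 Read-out is the imaged count of Hoechst 33342-stained nuclei (2 μg/ml final) in fixed, permeabilised A549 cells. Senescent cells had received etoposide at 100 μM for 48 h plus three days recovery in normal media. Compound exposure lasted 72 h across a 10-point […] range, 10 μM to 10 nM.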

[3] = test system: non-senescent control A549 cells; test: Nuclei count senolytic assay, TIS model, non-senescent control cells; details: Homo sapiens, A549, Control cells, mean, read-out: Mean % Cell Survival; for viability at 10 µM: log (dose) [M] -5; for viability at 4.68 µM: log (dose) [M] -5.33; for viability at 2.19 µM: log (dose) [M] -5.66; for viability at 1 µM: log (dose) [M] -6; for viability at 0.468 µM: log (dose) [M] -6.33; for viability at 0.219 µM: log (dose) [M] -6.66; for viability at 0.1 µM: log (dose) [M] -7; for viability at 0.0468 µM: log (dose) [M] -7.33; for viability at 0.01 µM: log (dose) [M] -8
In short: as §1

[4] = IMR-90, 72 h, Senescent, mean n=3 (Fig 3C), read-out: Mean % Cell Survival
[5] = IMR-90, 72 h, Senescent, log (dose) [M] -6.33, 72 h, mean n=3 (Fig 3C), read-out: Mean % Cell Survival
[6] = IMR-90, 72 h, Senescent, log (dose) [M] -6.66, 72 h, mean n=3 (Fig 3C), read-out: Mean % Cell Survival
[7] = IMR-90, 72 h, Senescent, log (dose) [M] -7.33, 72 h, mean n=3 (Fig 3C), read-out: Mean % Cell Survival
[8] = IMR-90, 72 h, Senescent, log (dose) [M] -7.66, 72 h, mean n=3 (Fig 3C), read-out: Mean % Cell Survival
[9] = IMR-90, 72 h, Senescent, log (dose) [M] -8, 72 h, mean n=3 (Fig 3C), read-out: Mean % Cell Survival
[10] = IMR-90, Senescent cells, log (dose) [M] -7.33, individual replicates, SUP FIG 4C, read-out: % Cell Survival

Structure (SMILES) | viability at 10 µM [1, 4] [%] | viability at 4.677 µM [1, 4] [%] | viability at 2.188 µM [1, 4] [%] | viability at 1 µM [1, 4] [%] | viability at 0.4677 µM [1, 5] [%] | viability at 0.2188 µM [1, 6] [%] | viability at 0.1 µM [1, 4] [%] | viability at 0.04677 µM [1, 7] [%] | viability at 0.02188 µM [1, 8] [%] | viability at 0.01 µM [1, 9] [%] | viability at 0.04677 µM [1, 10] [%] | viability at 10 µM [2] [%] | viability at 4.68 µM [2] [%] | viability at 2.19 µM [2] [%] | viability at 1 µM [2] [%] | viability at 0.468 µM [2] [%] | viability at 0.219 µM [2] [%] | viability at 0.1 µM [2] [%] | viability at 0.0468 µM [2] [%] | viability at 0.0219 µM [2] [%] | other results
Cc1cc2c(C(C)C)c(O)c(O)c(C=O)c2c(O)c1-c1c(C)cc2c(C(C)C)c(O)c(O)c(C=O)c2c1O [Gossypol, gossypol] | 26.6 | 121 | 156 | 166 | 168 | 188 | 130 | 120 | 145 | 116 | 127 | 110 | 146 | 166 | 126 | 74.4 | 149 | 112 | 69.1 | 107 | viability at 0.2188 µM ([1]; IMR-90, Senescent cells, log (dose) [M] -6.66, individual replicates, SUP FIG 4C, read-out: % Cell Survival): 189%; viability at 0.01 µM [2]: 117%; viability at 10 µM [3]: 117%; viability at 4.68 µM [3]: 107%; viability at 2.19 µM [3]: 100%; viability at 1 µM [3]: 101%; viability at 0.468 µM [3]: 108%; viability at 0.219 µM [3]: 94.5%; viability at 0.1 µM [3]: 68%; viability at 0.0468 µM [3]: 101%; viability at 0.01 µM [3]: 78.1%
O=c1c(O)c(-c2ccc(O)cc2)oc2c(O)c(O)cc(O)c12 [Herbacetin, herbacetin] | 103 | 98.4 | 76.1 | 71.6 | 91.9 | 84.1 | 95.7 | 90.5 | 97.8 | 97.5 | 85.5 | 112 | 122 | 121 | 87.3 | 80.2 | 102 | 114 | 106 | 98.6 | viability at 0.4677 µM ([1]; IMR-90, Senescent cells, log (dose) [M] -6.33, individual replicates, SUP FIG 4C, read-out: % Cell Survival): 94.7%; viability at 0.02188 µM ([1]; IMR-90, Senescent cells, log (dose) [M] -7.66, individual replicates, SUP FIG 4C, read-out: % Cell Survival): 100%; viability at 0.01 µM ([1]; IMR-90, Senescent cells, log (dose) [M] -8, individual replicates, SUP FIG 4C, read-out: % Cell Survival): 91.5%; viability at 0.02188 µM ([1]; IMR-90, Senescent, log (dose) [M] -7.66, read-out: % Cell Survival): 104%; senolytic activity (in words) ([1]; experimental screen, OIS IMR90 ER:RAS): inactive; viability at 0.01 µM [2]: 91.8%; viability at 10 µM [3]: 95.4%; viability at 4.68 µM [3]: 61.9%; viability at 2.19 µM [3]: 89.3%; viability at 1 µM [3]: 98.7%; viability at 0.468 µM [3]: 110%; viability at 0.219 µM [3]: 94.4%; viability at 0.1 µM [3]: 93.1%; viability at 0.0468 µM [3]: 91.6%; viability at 0.0219 µM ([3]; log (dose) [M] -7.66): 96.1%; viability at 0.01 µM [3]: 96.9%
